From PMC7394005, “Assessing the Selectivity of FXR, LXRs, CAR, and RORγ Pharmaceutical Ligands With Reporter Cell Lines” (Frontiers in Pharmacology, 2020)
Read-outs that look alike come from different tables or passages of the source.

What was measured:
Type in all cases: cell-based
human LXRβ = target: T1, human LXRβ (Homo sapiens, UniProt P55055); test: HG5LN GAL4-LXRβ reporter cell line, antagonist mode in presence of T0901317; conditions: for LXRβ (T0901317 100 nM) % min act: in presence of T0901317 100 nM (80% of maximal activity), at 10^-5 M (10^-6 M *, 3 10^-6 M **)
T1 construct: LXRβ (G199-E461); expressed in transfected cells; host or cells: HG5LN (HeLa cells carrying the (GAL4RE)5-βGlob-Luc-SVNeo reporter)
T1 sequence (P55055 198-460 limits assumed): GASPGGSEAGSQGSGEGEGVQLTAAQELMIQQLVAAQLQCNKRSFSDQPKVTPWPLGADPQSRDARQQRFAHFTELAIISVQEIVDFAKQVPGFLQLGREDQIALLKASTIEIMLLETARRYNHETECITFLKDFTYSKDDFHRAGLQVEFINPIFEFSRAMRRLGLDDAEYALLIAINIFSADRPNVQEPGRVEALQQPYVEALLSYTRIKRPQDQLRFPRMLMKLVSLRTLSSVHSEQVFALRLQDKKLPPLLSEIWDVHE
From the text: (§1) To construct GAL4-NR chimeras, individual LBDs of human FXR (R193-Q486), LXRα (A187-E447), LXRβ (G199-E461), CAR (M76-S348), and RORγ (S97-K518) were amplified by PCR with primers containing XhoI and SacI restriction sites (FXR), XhoI and BamHI (LXRs, CAR, RORγ) and inserted in pSG5-GAL4(DBD)-puromycin plasmid. To construct GAL4-CAR (+ APYLT) (M76-S353), the five amino acids APYLT were inserted by overlap extension PCR between amino acids P270 and D271 of CAR.
(§2) To characterize the specificity of chemicals for human FXR, LXRα, LXRβ, CAR and RORγ, we established in a similar manner HG5LN FXR, LXRα, LXRβ, CAR WT, CAR (APYLT) and RORγ reporter cell lines. […] These cells were stably transfected by pSG5-GAL4 (DBD)-NRs (LBD)-puromycin plasmid and selected in presence of 0.5 µg/ml puromycin. […] From each HG5LN NR cells, 5 to 10 clones were chosen for their ligand inducibility of luciferase expression. […] The most inducible clones were expanded and rechecked for inducibility and aliquots were frozen at different passages. One clone per receptor was maintained in culture and used for ligand screening. HG5LN cells were cultured in Dulbecco’s modified Eagle’s medium (DMEM): Nutrient Mixture F-12 (DMEM/F-12) containing phenol red and 1 g/l glucose and supplemented with 5% fetal bovine serum, 100 units/ml of penicillin, 100 µg/ml of streptomycin and 1 mg/ml geneticin, in 5% CO2 humidified atmosphere at 37°C. Stably transfected cell lines derived from HG5LN cells were cultured in the same culture medium supplemented with 0.5 µg/ml puromycin.
(§3) Individual reporter cell lines were seeded at a density of 40,000 cells per well in 96-well white opaque tissue culture plates (Greiner CellStar) in Dulbecco’s Modified Eagle Medium: Nutrient Mixture F-12 (DMEM/F-12) without phenol red and 1 g/l glucose and supplemented with 5% stripped fetal bovine serum, 100 units/ml of penicillin, 100 µg/ml of streptomycin (test medium). Chemicals to be tested were added 24h later, and cells were incubated at 37°C for 16h. Experiments were performed in quadruplicates. At the end of the incubation period, culture medium was replaced with test medium containing 0.3 mM luciferin solution. Luciferase activity was measured for 2s in intact living cells after 10 min stabilization using a Micro Beta Wallac luminometer (PerkinElmer). EC50 values were calculated using GraphPad Prism (GraphPad Software Inc).
(§4) Chemicals tested for agonism on FXR, LXRs, CAR (+ APYLT), PXR, and antagonism on CAR and RORγ were tested alone, without addition of any other ligand.
(§5) In the transactivation assay, each compound was tested at various concentrations in three independent experiments at least. For each experiment, tests were performed in quadruplicates for each concentration, and data are expressed by means values with standard deviations. Individual agonist dose–response curves, in the absence and presence of antagonist, were fitted using the sigmoid dose-response function of a graphics and statistics software program (GraphPad Prism, version 5.0). EC50 (effective concentration for half-maximal luciferase activity) and IC50 (half-maximal inhibitory concentration) values were calculated from equations used to fit the data in this graphic software. Transactivation data are presented as EC50 and IC50 values for each compound tested. To analyze significances, we compared individual compound treatments with controls using one-way analysis of variance (ANOVA) with the help of GraphPad Prism software.

human CAR WT = target: T2, human CAR WT (Homo sapiens, UniProt Q14994); test: HG5LN GAL4-CAR WT reporter cell line, inhibition of constitutive activity; conditions: for IC50: inhibition of constitutive activity; for remaining activity at 10 µM: HG5LN, read-out: CAR WT % min act
T2 construct: CAR (M76-S348); expressed in transfected cells; host or cells: HG5LN (HeLa cells carrying the (GAL4RE)5-βGlob-Luc-SVNeo reporter)
T2 sequence (Q14994 76-348 isoform Q14994-2): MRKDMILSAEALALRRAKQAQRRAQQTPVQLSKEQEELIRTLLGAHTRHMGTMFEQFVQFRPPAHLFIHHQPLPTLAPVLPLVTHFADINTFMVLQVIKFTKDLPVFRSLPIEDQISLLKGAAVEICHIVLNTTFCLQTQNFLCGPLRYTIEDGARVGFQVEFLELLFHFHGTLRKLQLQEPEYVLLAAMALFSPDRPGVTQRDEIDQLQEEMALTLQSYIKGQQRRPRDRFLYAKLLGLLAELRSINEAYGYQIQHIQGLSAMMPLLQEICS
From the text: as §1, §2, §3, §4, §5

human FXR = target: T3, human FXR (Homo sapiens, UniProt Q96RI1); test: HG5LN GAL4-FXR reporter cell line, antagonist mode in presence of GW4064; conditions: for FXR (GW4064 100 nM) % min act: in presence of GW4064 100 nM (80% of maximal activity), at 10^-5 M (10^-6 M *, 3 10^-6 M **)
T3 construct: FXR (R193-Q486); expressed in transfected cells; host or cells: HG5LN (HeLa cells carrying the (GAL4RE)5-βGlob-Luc-SVNeo reporter)
T3 sequence (Q96RI1 193-486): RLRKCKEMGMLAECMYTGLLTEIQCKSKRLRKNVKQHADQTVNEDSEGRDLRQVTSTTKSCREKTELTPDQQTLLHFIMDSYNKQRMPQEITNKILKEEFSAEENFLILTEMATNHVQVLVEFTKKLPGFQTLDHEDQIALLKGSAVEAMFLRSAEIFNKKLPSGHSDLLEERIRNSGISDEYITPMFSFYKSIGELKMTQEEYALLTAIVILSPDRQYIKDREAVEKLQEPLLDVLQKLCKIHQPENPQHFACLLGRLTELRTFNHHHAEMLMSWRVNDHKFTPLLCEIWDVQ
From the text: as §1, §2, §3, §4, §5

human CAR (+ APYLT) = target: T4, human CAR (+ APYLT) (Homo sapiens, UniProt Q14994, INS270APYLT); test: HG5LN GAL4-CAR (+APYLT) reporter cell line, agonist mode; conditions: for EC50: HG5LN CAR + APYLT cells, tested alone, NE = No effect
T4 construct: CAR (M76-S348); expressed in transfected cells; host or cells: HG5LN (HeLa cells carrying the (GAL4RE)5-βGlob-Luc-SVNeo reporter)
T4 sequence (Q14994 47-324 isoform Q14994-6): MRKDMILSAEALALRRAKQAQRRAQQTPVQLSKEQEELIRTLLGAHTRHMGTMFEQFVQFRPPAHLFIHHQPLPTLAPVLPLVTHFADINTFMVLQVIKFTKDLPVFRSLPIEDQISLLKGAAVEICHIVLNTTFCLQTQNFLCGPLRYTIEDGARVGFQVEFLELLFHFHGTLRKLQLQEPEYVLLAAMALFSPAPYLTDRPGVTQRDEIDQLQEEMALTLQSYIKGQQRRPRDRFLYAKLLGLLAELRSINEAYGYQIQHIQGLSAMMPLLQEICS
From the text: as §1, §2, §3, §4, §5

[1] = read-out: LXRβ (T0901317 100 nM) IC50, in presence of T0901317 100 nM, NE = No effect
[2] = tested alone, constitutive activity = 100%, at 10^-5 M (10^-6 M *, 3 10^-6 M **), NE = No effect
[3] = read-out: FXR (GW4064 100 nM) IC50, in presence of GW4064 100 nM, NE = No effect

Compound	IC50 (human LXRβ; [1]) [µM]	IC50 (human CAR WT; tested alone, NE = No effect) [µM]	IC50 (human FXR; [3]) [µM]	EC50 (human CAR (+ APYLT)) [µM]	also measured
CCOC(=O)Nc1ccc2c(c1)N(C(=O)CN(CC)CC)c1ccccc1CC2 [CINPA1]	> 10	0.251 ± 0.015	> 10	> 10	CAR WT % min act (human CAR WT; [2]): 19%
Clc1ccc(-c2nc3sccn3c2/C=N/OCc2ccc(Cl)c(Cl)c2)cc1 [CITCO]	> 10	–	> 10	–	–
Clc1ccccc1C(c1ccccc1)(c1ccccc1)n1ccnc1 [Clotrimazole, clotrimazole]	> 10	–	–	–	remaining activity at 10 µM (human CAR WT; [2]): 64%; Emax at 10 µM (human CAR (+ APYLT); HG5LN, read-out: CAR (APYLT) % max act): 23%
CC(C)(C)c1nc(-c2cccc(NS(=O)(=O)c3c(F)cccc3F)c2F)c(-c2ccnc(N)n2)s1 [Dabrafenib]	> 10	> 10	> 10	> 10	–
COC(=O)/C=C/c1cccc(N(Cc2ccc(-c3ccc(N(C)C)cc3)cc2)C(=O)C2CCCCC2)c1 [Feraxamine]	> 10	> 10	0.687 ± 0.103	> 10	FXR (GW4064 100 nM) % min act (human FXR; NE = No effect): 33%
Cc1cc(C)c(S(=O)(=O)N(Cc2ccc(-c3cccc(S(C)(=O)=O)c3)cc2)Cc2ccc(C(F)(F)F)o2)c(C)c1 [GSK2033]	–	0.556 ± 0.024	> 10	> 10	IC50 (human LXRβ): 0.01 ± 0.003 µM; LXRβ (T0901317 100 nM) % min act (human LXRβ; NE = No effect): 2%; remaining activity at 10 µM (human CAR WT): 21%
Cc1oc2ccccc2c1CNC(=O)NCc1cccs1 [S07662]	> 10	1.06 ± 0.063	> 10	> 10	CAR WT % min act (human CAR WT; [2]): 21%
O=C(Nc1ccc(C(O)(C(F)(F)F)C(F)(F)F)cc1)c1ccccc1Cl [SR0987]	> 10	> 10	> 10	> 10	–
O=C(Nc1ccc(C(O)(C(F)(F)F)C(F)(F)F)cc1)c1ccc(C(F)(F)F)cc1 [SR1078]	> 10	> 10	> 10	> 10	–
CCOC(=O)c1ccc(CN(Cc2ccc(-c3cccc(S(C)(=O)=O)c3)cc2)S(=O)(=O)c2c(C)cc(C)cc2C)o1 [SR9238]	–	> 10	> 10	> 10	IC50 (human LXRβ): 0.005 ± 0.001 µM; LXR β-subtype specificity (fold, over α subtype) (human LXRβ; from IC50 values on LXRα and LXRβ): 5 fold; LXRβ (T0901317 100 nM) % min act (human LXRβ; NE = No effect): 1%; remaining activity at 10 µM (human CAR WT): 77%
Fc1ccc(-c2c3cccc(C(F)(F)F)c3nn2Cc2ccc(F)cc2Cl)cc1 [WAY252623]	–	> 10	> 10	> 10	–
SPA70	> 10	> 10	> 10	> 10	–

Second part, led by results:

IC50 (human LXRβ; [1]) [µM]	IC50 (human CAR WT; tested alone, NE = No effect) [µM]	IC50 (human FXR; [3]) [µM]	EC50 (human CAR (+ APYLT)) [µM]	Compound	also measured
> 10	> 10	0.148 ± 0.068	> 10	COc1cccc(Cn2cc(C(=O)Nc3ccc(C)c(S(=O)(=O)N4CCOCC4)c3)c(-c3ccc(C)cc3)n2)c1 [DY268]	FXR (GW4064 100 nM) % min act (human FXR; NE = No effect): 14%
–	> 10	–	> 10	O=C(O)Cc1cccc(OCCCN(Cc2cccc(C(F)(F)F)c2Cl)CC(c2ccccc2)c2ccccc2)c1 [GW3965]	IC50 (human FXR): 5.8 ± 0.313 µM; FXR (GW4064 100 nM) % min act (human FXR; NE = No effect): 25%
> 10	> 10	–	> 10	CC(C)c1onc(-c2c(Cl)cccc2Cl)c1COc1ccc(/C=C/c2cccc(C(=O)O)c2)c(Cl)c1 [GW4064]	–
> 10	> 10	> 10	> 10	CC(=O)Nc1nc(C)c(S(=O)(=O)Nc2ccc(C(O)(C(F)(F)F)C(F)(F)F)cc2)s1 [SR1001]	–
–	8.75 ± 3.69	> 10	> 10	Cc1cc(C)c(S(=O)(=O)N(CCc2cccc(Br)c2)Cc2ccc(-c3cccc(S(C)(=O)=O)c3)cc2)c(C)c1 [SR9243]	IC50 (human LXRβ): 0.059 ± 0.013 µM; LXRβ (T0901317 100 nM) % min act (human LXRβ; NE = No effect): 2%; remaining activity at 10 µM (human CAR WT; [2]): 65%
> 10	> 10	> 10	> 10	CCOP(=O)(OCC)C(=Cc1cc(C(C)(C)C)c(O)c(C(C)(C)C)c1)P(=O)(OCC)OCC [SR12813]	–
